Data taken from US8334316B2, “Substituted organosulfur compounds and methods of using thereof” (ACEA Biosciences, Inc., priority 2004, dated 2012).
Where two headings read alike, the source gives them in different places.

Assay: Acute toxicity, single intravenous injection, LD50 (Bliss method) in Kunming mice
Assay type: in vivo
Conditions: for Dead animals on day 8 after the single intravenous injection / Dead animals on day 9 after the single intravenous injection / Dead animals on days 10-14 after the single intravenous injection / Percentage of dead animals / Dead animals on day 1 after the single intravenous injection / Dead animals on day 2 after the single intravenous injection / Dead animals on day 3 after the single intravenous injection / Dead animals on day 4 after the single intravenous injection / Dead animals on day 5 after the single intravenous injection / Dead animals on day 6 after the single intravenous injection / Dead animals on day 7 after the single intravenous injection: 10 animals; for LD50 at 2 weeks: Kunming, mouse, in vivo, iv
Protocol: To evaluate the in vivo acute, intravenous toxicity of DBTS and ACEA100108 (a derivative of DBTS, see Table 33), the experiments were performed in non-tumor bearing, normal Kunming mice by monitoring the acute response of mice to a single dose of DBTS or ACEA100108 via intravenous injection (i.v.). The number of death for the treated mice was monitored and recorded. LD50 values for these compounds were calculated. Details of the study are provided below.
The experiments to test DBTS and ACEA100108 acute toxicity were performed in mice. The test mice were randomly divided into six groups (five dosing groups and one control group). Each group contained 20 Kunming strain mice, and among them, 50% were male and 50% were female. After administration of a single dose of DBTS or ACEA100108 via intravenous injection (i.v.), the acute response to DBTS or ACEA100108 compound, and the death of the treated mice during the first two weeks were monitored and recorded. The LD50 value was calculated using the Bliss method.
Materials and Method. The test chemical compound were DBTS and ACEA100108, which were dissolved into hydrogenated castor oil in the pre-warmed water bath and made as a 20 mg/ml solution. The solution was further diluted to desired experiment concentrations with the normal saline. The administration volume was 0.5 ml i.v. per mouse and the injection speed was 0.5 ml/0.5 min.
The experimental mice were Kunming strain, provided by the Experimental Animal Department, Shanghai Pharmaceutical Industry Institute. The certificate number of the facility was Animal Facility Certification Number 107. The average weight of the mice was 18-20 gram. Each test group contained 20 Kunming strain mice, and among them, 10 mice were male and 10 mice were female. […] The mice in the control group were only given the same volume of the solvent, which were diluted hydrogenated castor oil. All the testing mice were given a single intravenous injection of DBTS, ACEA100108, or the solvent that served as the control at the injection speed of 0.5 ml/0.5 min. The acute response to DBTS, ACEA100108 or the solvent immediately after the administration, as well as weight change, and the death within the first two weeks of the administration were monitored and recorded. The intravenous injection LD50 values in mice were calculated using the Bliss method.

Structure (SMILES): Fc1ccc(CSSSCc2ccc(F)cc2)cc1 [ACEA100108, Di(p-fluorobenzyl)trisulfide]
- Dead animals on day 8 after the single intravenous injection (Female, 320 mg/kg): 0
- Dead animals on day 9 after the single intravenous injection (Female, 320 mg/kg): 0
- Dead animals on days 10-14 after the single intravenous injection (Female, 320 mg/kg): 0 - - - 0
- Percentage of dead animals (Female, 320 mg/kg): 50%
- Average animal weight, End (Female, 320 mg/kg, Beginning 19.9): 24.6
- Dead animals on day 1 after the single intravenous injection (Female, 400 mg/kg): 5
- Dead animals on day 2 after the single intravenous injection (Female, 400 mg/kg): 2
- Dead animals on day 3 after the single intravenous injection (Female, 400 mg/kg): 0
- Dead animals on day 4 after the single intravenous injection (Female, 400 mg/kg): 1
- Dead animals on day 5 after the single intravenous injection (Female, 400 mg/kg): 0
- Dead animals on day 6 after the single intravenous injection (Female, 400 mg/kg): 0
- Dead animals on day 7 after the single intravenous injection (Female, 400 mg/kg): 0
- Dead animals on day 8 after the single intravenous injection (Female, 400 mg/kg): 0
- Dead animals on day 9 after the single intravenous injection (Female, 400 mg/kg): 0
- Dead animals on days 10-14 after the single intravenous injection (Female, 400 mg/kg): 0 - - - 0
- Percentage of dead animals (Female, 400 mg/kg): 80%
- Average animal weight, End (Female, 400 mg/kg, Beginning 19.9): 23.5
- Dead animals on day 1 after the single intravenous injection (Female, 500 mg/kg): 10
- Dead animals on day 2 after the single intravenous injection (Female, 500 mg/kg): 0
- Dead animals on day 3 after the single intravenous injection (Female, 500 mg/kg): 0
- Dead animals on day 4 after the single intravenous injection (Female, 500 mg/kg): 0
- Dead animals on day 5 after the single intravenous injection (Female, 500 mg/kg): 0
- Dead animals on day 6 after the single intravenous injection (Female, 500 mg/kg): 0
- Dead animals on day 7 after the single intravenous injection (Female, 500 mg/kg): 0
- Dead animals on day 8 after the single intravenous injection (Female, 500 mg/kg): 0
- Dead animals on day 9 after the single intravenous injection (Female, 500 mg/kg): 0
- Dead animals on days 10-14 after the single intravenous injection (Female, 500 mg/kg): 0 - - - 0
- Percentage of dead animals (Female, 500 mg/kg): 100%
- Dead animals on day 1 after the single intravenous injection (Male, 163.8 mg/kg): 0
- Dead animals on day 2 after the single intravenous injection (Male, 163.8 mg/kg): 0
- Dead animals on day 3 after the single intravenous injection (Male, 163.8 mg/kg): 0
- Dead animals on day 4 after the single intravenous injection (Male, 163.8 mg/kg): 0
- Dead animals on day 5 after the single intravenous injection (Male, 163.8 mg/kg): 0
- Dead animals on day 6 after the single intravenous injection (Male, 163.8 mg/kg): 0
- Dead animals on day 7 after the single intravenous injection (Male, 163.8 mg/kg): 0
- Dead animals on day 8 after the single intravenous injection (Male, 163.8 mg/kg): 0
- Dead animals on day 9 after the single intravenous injection (Male, 163.8 mg/kg): 0
- Dead animals on days 10-14 after the single intravenous injection (Male, 163.8 mg/kg): 0 - - - 0
- Percentage of dead animals (Male, 163.8 mg/kg): 0%
- Average animal weight, End (Male, 163.8 mg/kg, Beginning 20.4): 27.0
- Dead animals on day 1 after the single intravenous injection (Male, 204.8 mg/kg): 0
- Dead animals on day 2 after the single intravenous injection (Male, 204.8 mg/kg): 0
- Dead animals on day 3 after the single intravenous injection (Male, 204.8 mg/kg): 1
- Dead animals on day 4 after the single intravenous injection (Male, 204.8 mg/kg): 0
- Dead animals on day 5 after the single intravenous injection (Male, 204.8 mg/kg): 0
- Dead animals on day 6 after the single intravenous injection (Male, 204.8 mg/kg): 0
- Dead animals on day 7 after the single intravenous injection (Male, 204.8 mg/kg): 0
- Dead animals on day 8 after the single intravenous injection (Male, 204.8 mg/kg): 0
- Dead animals on day 9 after the single intravenous injection (Male, 204.8 mg/kg): 0
- Dead animals on days 10-14 after the single intravenous injection (Male, 204.8 mg/kg): 0 - - - 0
- Percentage of dead animals (Male, 204.8 mg/kg): 10%
- Average animal weight, End (Male, 204.8 mg/kg, Beginning 20.3): 26.3
- Dead animals on day 1 after the single intravenous injection (Male, 256 mg/kg): 0
- Dead animals on day 2 after the single intravenous injection (Male, 256 mg/kg): 2
- Dead animals on day 3 after the single intravenous injection (Male, 256 mg/kg): 0
- Dead animals on day 4 after the single intravenous injection (Male, 256 mg/kg): 1
- Dead animals on day 5 after the single intravenous injection (Male, 256 mg/kg): 0
- Dead animals on day 6 after the single intravenous injection (Male, 256 mg/kg): 0
- Dead animals on day 7 after the single intravenous injection (Male, 256 mg/kg): 0
- Dead animals on day 8 after the single intravenous injection (Male, 256 mg/kg): 0
- Dead animals on day 9 after the single intravenous injection (Male, 256 mg/kg): 0
- Dead animals on days 10-14 after the single intravenous injection (Male, 256 mg/kg): 0 - - - 0
- Percentage of dead animals (Male, 256 mg/kg): 30%
- Average animal weight, End (Male, 256 mg/kg, Beginning 20.2): 26.3
- Dead animals on day 1 after the single intravenous injection (Male, 320 mg/kg): 0
- Dead animals on day 2 after the single intravenous injection (Male, 320 mg/kg): 3
- Dead animals on day 3 after the single intravenous injection (Male, 320 mg/kg): 1
- Dead animals on day 4 after the single intravenous injection (Male, 320 mg/kg): 0
- Dead animals on day 5 after the single intravenous injection (Male, 320 mg/kg): 0
- Dead animals on day 6 after the single intravenous injection (Male, 320 mg/kg): 0
- Dead animals on day 7 after the single intravenous injection (Male, 320 mg/kg): 0
- Dead animals on day 8 after the single intravenous injection (Male, 320 mg/kg): 0
- Dead animals on day 9 after the single intravenous injection (Male, 320 mg/kg): 0
- Dead animals on days 10-14 after the single intravenous injection (Male, 320 mg/kg): 0 - - - 0
- Percentage of dead animals (Male, 320 mg/kg): 40%
- Average animal weight, End (Male, 320 mg/kg, Beginning 20.0): 26.7
- Dead animals on day 1 after the single intravenous injection (Male, 400 mg/kg): 3
- Dead animals on day 2 after the single intravenous injection (Male, 400 mg/kg): 3
- Dead animals on day 3 after the single intravenous injection (Male, 400 mg/kg): 0
- Dead animals on day 4 after the single intravenous injection (Male, 400 mg/kg): 1
- Dead animals on day 5 after the single intravenous injection (Male, 400 mg/kg): 0
- Dead animals on day 6 after the single intravenous injection (Male, 400 mg/kg): 0
- Dead animals on day 7 after the single intravenous injection (Male, 400 mg/kg): 0
- Dead animals on day 8 after the single intravenous injection (Male, 400 mg/kg): 0
- Dead animals on day 9 after the single intravenous injection (Male, 400 mg/kg): 0
- Dead animals on days 10-14 after the single intravenous injection (Male, 400 mg/kg): 0 - - - 0
- Percentage of dead animals (Male, 400 mg/kg): 70%
- Average animal weight, End (Male, 400 mg/kg, Beginning 19.9): 26.0
- Dead animals on day 1 after the single intravenous injection (Male, 500 mg/kg): 10
- Dead animals on day 2 after the single intravenous injection (Male, 500 mg/kg): 0
- Dead animals on day 3 after the single intravenous injection (Male, 500 mg/kg): 0
- Dead animals on day 4 after the single intravenous injection (Male, 500 mg/kg): 0
- Dead animals on day 5 after the single intravenous injection (Male, 500 mg/kg): 0
- Dead animals on day 6 after the single intravenous injection (Male, 500 mg/kg): 0
- Dead animals on day 7 after the single intravenous injection (Male, 500 mg/kg): 0
- Dead animals on day 8 after the single intravenous injection (Male, 500 mg/kg): 0
- Dead animals on day 9 after the single intravenous injection (Male, 500 mg/kg): 0
- Dead animals on days 10-14 after the single intravenous injection (Male, 500 mg/kg): 0 - - - 0
- Percentage of dead animals (Male, 500 mg/kg): 100%
- LD50 at 2 weeks (both sexes, 50% male, 50% female Kunming mice, single intravenous injection, confidence limits, read-out: LD50 (95% CL)): 284 to 351 mg/kg
- LD50 at 2 weeks (both sexes, 50% male, 50% female Kunming mice, single intravenous injection, read-out: LD50): 316 mg/kg
- LD50 at 2 weeks (both sexes, Kunming mice, 50% male 50% female, Bliss method, read-out: mouse single i.v. dose LD50, interval in parentheses): 284 to 351 mg/kg
- LD50 at 2 weeks (both sexes, Kunming mice, 50% male 50% female, Bliss method, read-out: mouse single i.v. dose LD50 value): 316 mg/kg
- LD50 at 2 weeks (female, Female Kunming mice, single intravenous injection, confidence limits, read-out: LD50 (95% CL)): 273 to 360 mg/kg
- LD50 at 2 weeks (female, Female Kunming mice, single intravenous injection, read-out: LD50): 313 mg/kg
- LD50 at 2 weeks (male, Male Kunming mice, single intravenous injection, confidence limits, read-out: LD50 (95% CL)): 272 to 375 mg/kg
- LD50 at 2 weeks (male, Male Kunming mice, single intravenous injection, read-out: LD50): 319 mg/kg
